Measurements as given in the supplement of paper PMC10883282.
Structures can show the parent of a compound that is named as a salt. ± gives the standard deviation of the averaged measurements.

System: HT1080
Experiment: relative viability vs DMSO control (72 h) (fraction); higher = more viable cells
Method in brief: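 Percent growth from ATPLite readings, averaged over up to triplicate wells, was used as relative viability. Sarcoma cell lines were seeded into 384-well plates for 80–90% confluence, dosed after 24 h, and kept 72 h at 37 °C, 5% CO2. Data were rescaled to a range where 1 is full and 0 is none.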

SMILES	relative viability (0.00017 µM)	relative viability (0.00051 µM)	relative viability (0.00152 µM)	relative viability (0.00457 µM)	relative viability (0.01372 µM)	relative viability (0.04115 µM)	relative viability (0.1235 µM)	relative viability (0.3704 µM)	relative viability (1.111 µM)	relative viability (3.333 µM)	relative viability (10 µM)
CC(C)(C)c1cc(NC(=O)Nc2ccc(-c3cn4c(n3)sc3cc(OCCN5CCOCC5)ccc34)cc2)no1 [Quizartinib]	1.12 ± 0.013	1.09 ± 0.016	1.087 ± 0.0076	1.08 ± 0.029	1.07 ± 0.014	1.11 ± 0.034	1.1 ± 0.035	1.11 ± 0.012	1.04 ± 0.042	0.907 ± 0.048	0.806 ± 0.042
CNC(=O)c1ccc(-c2cnc3ncc(Cc4ccc5ncccc5c4)n3n2)cc1F [Capmatinib]	1.06 ± 0.022	1.06 ± 0.041	1.06 ± 0.018	1.06 ± 0.014	1.06 ± 0.012	1.04 ± 0.019	1.05 ± 0.014	1.05 ± 0.028	1.044 ± 0.01	0.989 ± 0.015	1.005 ± 0.0012
CC(C)N1CCN(Cc2cnc(-c3cc(-c4cccc5[nH]ccc45)cc4[nH]ncc34)o2)CC1 [Nemiralisib]	1 ± 0.045	1.03 ± 0.015	1.01 ± 0.02	1.027 ± 0.0081	1.008 ± 0.0024	1.02 ± 0.011	1.05 ± 0.045	1.05 ± 0.034	1.08 ± 0.068	1.02 ± 0.033	0.858 ± 0.024
C[C@@H](c1ccc2nccn2c1)n1nnc2ncc(-c3cnn(C)c3)nc21 [Volitinib]	1.02 ± 0.043	1.06 ± 0.016	1.07 ± 0.02	1.06 ± 0.031	1.06 ± 0.029	1.04 ± 0.011	1.02 ± 0.022	1.05 ± 0.034	1.06 ± 0.012	0.992 ± 0.016	0.948 ± 0.053
COc1c(OCCCN2CCOCC2)ccc2c1N=C(NC(=O)c1cnc(N)nc1)N1CCN=C21 [Copanlisib]	1.15 ± 0.059	1.14 ± 0.034	1.12 ± 0.04	1.111 ± 0.0021	1.1 ± 0.017	1.12 ± 0.016	1.08 ± 0.034	0.964 ± 0.026	0.65405 ± 0.00049	0.342 ± 0.022	0.224 ± 0.025
CCN1CCN(Cc2ccc(Nc3ncc(F)c(-c4cc(F)c5nc(C)n(C(C)C)c5c4)n3)nc2)CC1 [Abemaciclib]	1.05 ± 0.0085	1.05 ± 0.034	1.06 ± 0.018	1.08 ± 0.034	1.06 ± 0.011	1.07 ± 0.018	1.13 ± 0.053	1.18 ± 0.045	1.15 ± 0.055	1.07 ± 0.045	0.926 ± 0.063
C[C@]1(O)C[C@@H](c2nc(-c3ccc4ccc(-c5ccccc5)nc4c3)c3c(N)nccn32)C1 [Linsitinib]	1.044 ± 0.0049	1.09 ± 0.025	1.045 ± 0.0029	1.057 ± 0.009	1.04 ± 0.047	1.03 ± 0.018	1.03 ± 0.023	0.988 ± 0.025	0.968 ± 0.043	0.968 ± 0.025	0.881 ± 0.017
Cc1ccc(NC(=O)c2ccc(CN3CCN(C)CC3)cc2)cc1Nc1nc(-c2cccnc2)cs1 [Masitinib]	1.02 ± 0.029	1.06 ± 0.022	1.06 ± 0.0062	1.08 ± 0.033	1.05 ± 0.019	1.06 ± 0.021	1.03 ± 0.032	1.02 ± 0.044	0.89 ± 0.02	0.642 ± 0.06	0.177 ± 0.012
CN1CCN(c2ccc3nc(-c4c(N)c5c(F)cccc5[nH]c4=O)[nH]c3c2)CC1 [Dovitinib]	1.1 ± 0.047	1.09 ± 0.053	1.05 ± 0.046	1.1 ± 0.028	1.09 ± 0.013	1.095 ± 0.0071	1.11 ± 0.023	1.155 ± 0.0091	0.975 ± 0.017	0.632 ± 0.023	0.154 ± 0.08
CC(=O)Nc1cccc(-n2c(=O)n(C3CC3)c(=O)c3c(Nc4ccc(I)cc4F)n(C)c(=O)c(C)c32)c1 [Trametinib]	1.1 ± 0.022	1.119 ± 0.0055	1.039 ± 0.0014	0.981 ± 0.041	0.638 ± 0.029	0.537 ± 0.017	0.478 ± 0.032	0.377 ± 0.011	0.351 ± 0.02	0.334 ± 0.018	0.296 ± 0.014
C=CC(=O)N1CCC[C@@H](n2nc(-c3ccc(Oc4ccccc4)cc3)c3c(N)ncnc32)C1 [Ibrutinib]	1.07 ± 0.019	1.11 ± 0.019	1.1 ± 0.012	1.05 ± 0.012	1.1 ± 0.022	1.06 ± 0.055	1.06 ± 0.015	1.07 ± 0.025	1.12 ± 0.027	1.14 ± 0.022	1.101 ± 0.0017
COc1cc2/c(=N/c3ccc(Br)cc3F)nc[nH]c2cc1OCC1CCN(C)CC1 [Vandetanib]	1.02 ± 0.015	1.02 ± 0.026	1.03 ± 0.026	1.03 ± 0.022	1.03 ± 0.026	1.02 ± 0.034	1.02 ± 0.043	1.03 ± 0.031	1.02 ± 0.02	0.962 ± 0.04	0.326 ± 0.022
C[C@@H]1COCCN1c1cc(-c2ccnn2C)c2ccnc(-c3ccn[nH]3)c2n1	1.044 ± 0.0047	1.03 ± 0.014	1.024 ± 0.0029	1.02 ± 0.025	0.998 ± 0.035	0.954 ± 0.017	0.735 ± 0.037	0.28 ± 0.0093	0.191 ± 0.0041	0.16 ± 0.0093	0.1555 ± 0.00028
COc1cccc2c1C(=O)c1c(O)c3c(c(O)c1C2=O)C[C@@](O)(C(=O)CO)C[C@@H]3O[C@H]1C[C@H](N)[C@H](O)[C@H](C)O1 [Doxorubicin Hydrochloride]	1.09 ± 0.015	1.071 ± 0.0078	1.04 ± 0.025	1.05 ± 0.024	0.97 ± 0.028	0.707 ± 0.01	0.5504 ± 0.0046	0.117 ± 0.0055	0.105 ± 0.0013	0.183 ± 0.0044	0.115 ± 0.0043
O=C(Nc1cnn2ccc(N3CCC[C@@H]3c3cc(F)ccc3F)nc12)N1CC[C@H](O)C1 [Larotrectinib]	1.08 ± 0.042	1.05 ± 0.035	1.05 ± 0.039	1.05 ± 0.054	1.07 ± 0.038	1.06 ± 0.058	1.07 ± 0.014	1.09 ± 0.036	1.04 ± 0.028	1.06 ± 0.022	1.03 ± 0.022
Cc1cc(C)c(/C=C2\C(=O)Nc3ccccc32)[nH]1 [Semaxanib]	0.923 ± 0.051	0.964 ± 0.038	0.94 ± 0.023	0.945 ± 0.018	0.926 ± 0.022	0.946 ± 0.049	0.893 ± 0.059	0.921 ± 0.018	0.928 ± 0.023	0.939 ± 0.034	0.888 ± 0.065
CC1(C)CNc2cc(NC(=O)c3cccnc3NCc3ccncc3)ccc21 [Motesanib]	1.03 ± 0.036	0.975 ± 0.032	1.03 ± 0.016	1.03 ± 0.023	1.04 ± 0.041	1 ± 0.04	1.02 ± 0.0035	0.98 ± 0.012	1.01 ± 0.018	0.9961 ± 0.0086	0.976 ± 0.015
Cc1nc(-c2cn3c(n2)-c2ccc(-c4cnn(C(C)(C)C(N)=O)c4)cc2OCC3)n(C(C)C)n1 [Taselisib]	1.016 ± 0.01	1.01 ± 0.017	1.02 ± 0.015	1.03 ± 0.056	1.02 ± 0.011	1.02 ± 0.016	1.034 ± 0.0069	1.04 ± 0.018	1.02 ± 0.052	1.01 ± 0.012	0.738 ± 0.0029
CC(C)NC(=O)C1CCC(n2c(NC(=O)c3ccc(F)cc3)nc3ccc(CN4CCC(C(C)(C)O)CC4)cc32)CC1 (centres undefined) [Belizatinib]	1.079 ± 0.0088	1.09 ± 0.036	1.05 ± 0.018	1.08 ± 0.057	1.07 ± 0.052	1.08 ± 0.021	1.062 ± 0.0014	1.06 ± 0.069	1.03 ± 0.056	0.866 ± 0.014	0.4946 ± 0.0036
